Test results from patent US6217863A, “Rationally designed polysaccharide lyases derived from heparinase I” (Massachusetts Institute of Technology, priority 1999, dated 2001).
Read-outs that look alike come from different tables or passages of the source.

Target: T1, heparinase I (heparin lyase I) of Flavobacterium heparinum, native purified (chromatofocused) enzyme, SEQ ID NO: 2 (Pedobacter heparinus, UniProt Q05819)
T1 construct: mature heparinase I from F. heparinum contains two free cysteines and not a disulfide bridge; made in house; host or cells: Flavobacterium heparinum (native enzyme purified from cell extract: hydroxyapatite, QAE-Sephadex, chromatofocusing)
T1 sequence (Q05819 22-384): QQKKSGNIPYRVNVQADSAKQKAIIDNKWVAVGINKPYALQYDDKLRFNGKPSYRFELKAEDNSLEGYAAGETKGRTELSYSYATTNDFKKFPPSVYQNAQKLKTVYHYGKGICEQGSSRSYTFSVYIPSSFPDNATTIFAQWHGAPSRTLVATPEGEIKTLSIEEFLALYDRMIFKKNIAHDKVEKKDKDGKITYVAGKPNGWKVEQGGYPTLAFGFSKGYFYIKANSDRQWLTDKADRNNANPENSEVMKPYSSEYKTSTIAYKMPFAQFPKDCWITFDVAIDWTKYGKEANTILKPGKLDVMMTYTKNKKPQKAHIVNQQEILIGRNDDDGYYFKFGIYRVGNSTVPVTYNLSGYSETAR
Assay: Inactivation of heparinase I activity by sulfhydryl-specific reagents
Assay type: biochemical
Conditions: for time to complete inactivation: PBS; for inactivation rate: 500 mM iodoacetic acid; for inactivation rate constant / inactivation time constant τ: PCMB; for inactivation time constant τ: pseudo first order fit
Procedure: Purification of heparinase I: Lyophilized powdered extracts of F. heparinum were prepared according to the method of Yang et al. (1985). Partially purified heparinase I was prepare by step gradient elution of powdered cell extracts from a hydroxyapatite column followed by reverse adsorption on a QAE-Sephadex column Further purification of the enzyme was accomplished with a chromatofocusing, 1 cm×18 cm column with PBE resin (Pharmacia). A 1.5-2.5 ml aliquot of protein (0.5-1.5 mg) in 0.01 M phosphate (pH 6.8) was applied to the column equilibrated with 0.025 M ethanolamine (pH 9.4 with acetic acid). Elution was carried out with 150 ml of 10% Polybuffer 96 (pH 6.0 with acetic acid). […] Fractions (1.5-2.0 ml) were collected in tubes containing 0.2 ml of 0.5 M phosphate buffer at pH 6.8. Immediately after collection, the fractions were assayed for heparinase I activity. […] The active fractions were pooled, and NaCl was added from a 2.0 M aqueous solution to give a final concentration of 0.1 M. Heparinase I was concentrated and equilibrated with a buffer consisting of 0.01 M NaH2 PO4 and 0.1 M NaCl at pH 6.8 (PBS) with Centricon P-30 microconcentrators (Amicon, Mass.).
Modification with Organomercurials: The reversible, sulfhydryl specific anion, PCMB, was utilized to determine the effects of sulfhydryl modification on heparinase I activity. […] The time course of inactivation in the presence and absence of heparin also was determined.
At =Ao exp(-t/.tau.)+A.infin.
where At is the fractional activity at time t, Ao is the initial factional activity, A.infin. is the residual activity at infinite time, and .tau. is the inactivation time constant in minutes or the reciprocal rate constant. Time constants were obtained by a nonlinear least squares fit of the data to the equation.
The effect of NEM modification on heparinase I activity was examined in an attempt to elucidate structural influences on the cysteine reactivities.
In order to ascertain whether significant levels of NEM bind heparinase I, labeling studies with [^3 H]NEM were undertaken.

**Q.** `O=C(O)CI` [iodoacetic acid] was tested. Which “time to complete inactivation” value (0.1 mM iodoacetic acid, 4° C.) did it give?
**A.** ≤ 15 h

**Q.** What about the “time to complete inactivation” value (1 mM iodoacetic acid, 4° C.) of the same compound?
**A.** ≤ 0.25 h

**Q.** What about the inactivation rate (no heparin) of the same compound?
**A.** 3±1×10^-3 h^-1

**Q.** And the inactivation rate (presence of 2 mg/ml heparin)?
**A.** 5±2×10^-4 h^-1

**Q.** And the inhibition at 2000 µM (10 min, 2 mM iodoacetic acid in PBS, 4° C., within 10 min, read-out: heparinase I inactivated)?
**A.** 95 ± 5%

**Q.** What about the “retention of activity relative to untreated heparinase I” value (iodoacetic acid treated enzyme (heparin protection experiment)) of the same compound?
**A.** 15±5%

**Q.** Which results are given for `CCN1C(=O)C=CC1=O` [NEM, N-ethylmaleimide]?
**A.** inhibition at 1000 µM (1 mM NEM overnight at 4° C., read-out: activity loss): ~15%; change in activity (1 mM NEM, pH 7.0, over an 8 h period): little change in activity; inhibition at 1000 µM (1 mM [3H]NEM, non-denatured enzyme, 20 h, read-out: loss of activity): 15%; inhibition at 10000 µM (0.75 h, 10 mM NEM, pH 7.0, 4° C., within 45 min, read-out: enzymatic activity lost): 15%

**Q.** `O=C(O)c1cc[c]([Hg][Cl])cc1` [PCMB] was tested. Which “reversible loss of enzyme activity” value (PCMB at 2.5-100 μM, 4° C.) did it give?
**A.** 95±5%

**Q.** What about the inactivation rate constant (0.0 mg/ml heparin) of the same compound?
**A.** 1.2 min⁻¹

**Q.** And the inactivation rate constant (0.5 mg/ml heparin)?
**A.** 0.2 min⁻¹

**Q.** What about the “inactivation time constant τ” value (absence of heparin) of the same compound?
**A.** 0.8 ± 1 min

**Q.** What about the “inactivation time constant τ” value (presence of 0.5 mg/ml heparin) of the same compound?
**A.** 5 ± 1 min

**Q.** `NC(=O)CI` [iodoacetamide] was tested. Which inhibition at 120000 µM (120 mM iodoacetamide, 24 h incubation, PBS pH 7.0, 4° C.) did it give?
**A.** 15%

**Q.** What about the change in activity (2, 5, 10 and 120 mM iodoacetamide in PBS, pH 7.0, 4° C., up to 24 h) of the same compound?
**A.** little change in activity
